Patent US5498601A, “Platelet aggregation-inhibiting peptides” (Nippon Steel Corporation, priority 1992, dated 1996)
Blank lines part the entries; values can stand above or below the molecule they belong to. Residues, ends and D or L forms follow the SMILES beside them. *: point of attachment. X1 = O=C(c1cc(=O)[nH]c(=O)[nH]1)*

What was measured:
platelet aggregation [1] = settings: 400 μM; cited from earlier work
[2] = system: blood coagulation in the dialysis circuit; test: extracorporeal circulation (artificial dialysis) model using a beagle; assay type: in vivo
Protocol: In order to confirm that the peptides of the present invention have the action of inhibiting blood coagulation in an extracorporeal circulation system, experiments were carried out on an artificial dialysis model using a beagle which is one of extracorporeal circulation models (see Hamano et al., Thromb. Res. 55 (1989) 438-449).
In the experiments, beagles weighing about 10-12 Kg were used. The beagles were anesthetized with pentobarbital (about 30 mg/Kg) and the right hind leg was incised to expose the femoral artery and femoral vein. Cannulas were inserted into the exposed femoral artery and femoral vein and connected to the artificial dialyzator for experiments (Kuraray, Osaka, Japan) having a circuit configuration as shown in FIG. 5. A hollow-fiber dialyzer (RENAK-A, RA-04, 0.4 m^2, Kawasumi Laboratories, Tokyo) was used. A pump for blood was placed between the femoral artery and the dialyzator and operated to keep the blood flow rate at 25 ml/min in the extracorporeal circulation system during the experiments.
The following three parameters were measured in the experiments: 1 the pressure in the up-stream portion of the dialyzer (perfusion pressure), 2 the percent platelet adhesion and 3 the whole blood coagulation time. The pressure under 1 was measured by a pressure gauge incorporated in the upper stream portion of the dialyzator in the dialysis circuit as shown in FIG. 5. Since at the site of dialyzer blood often experiences contacts with foreign materials and blood flows in a narrow space, blood coagulation is most likely to occur at this site in the dialysis circuit. If blood coagulation occurs there, the dialyzer is clogged and the blood pressure in the up-stream portion will increase. The change in the perfusion pressure at this site indicates the degree of blood coagulation in the dialysis circuit. In connection with parameters2 and 3, an aliquot of blood was sampled at the inlet and outlet of the dialysis part at given intervals of time to measure 2 and 3 by conventional methods. Parameters 2 and 3 indicate how the function of platelets and that of blood coagulation (the degree of activation), respectively, change with the progress of the experiments.
The experiments began with a continuous injection of a solution of the peptide of the present invention in saline from the arterial side (or the inlet side of the dialysis circuit) immediately after the circuit set-up. The amount of injection was 10 mg/dog or 30 mg/dog and the total amount was gradually injected over 1 hour (injection rate: 1 ml/min). In a control, only saline was continuously injected in the same manner. The injection of the drug was stopped after 60 minutes and blood was thereafter circulated up to 180 minutes to continue the measurement of the above parameters. […]

platelet aggregation [3] = test: intravenous injection in beagle, platelet aggregation of PRP measured over time; assay type: in vivo; settings: 5 mg/Kg i.v.
Protocol: (1) In order to examine how long the peptides of the present invention and heparin, which is used as an anticoagulant at present, can remain without being broken down or eliminated and how long the activity of them persists, intravenous injection experiments were carried out using beagles.
Since the peptides of the present invention have the platelet aggregation-inhibiting activity, the amount of the peptides which remain in the body of an organism without being broken down can be determined by collecting blood and measuring the platelet aggregation-inhibiting activity of the blood at given intervals of time. Thus, the in vivo stability of the peptides can be estimated.
In the experiments, a male beagle having a body weight of 10 Kg was used. […] The collected blood was centrifuged at 1000 rpm for 10 minutes to prepare platelet-rich plasma (PRP). The reminder was further centrifuged at 3000 rpm for 15 minutes to prepare platelet-poor plasma (PPP).
The platelet aggregation ability was determined by measuring the platelet aggregation of the PRP with collagen and ADP using an aggregometer. In the measurement, ADP was added at a final concentration of 7.5 and 10.0 μM and collagen was added at a final concentration of 7.5 and 10.0 μg/ml.

Hela cells = test: adhesion of HeLa cells to extracellular matrix protein adsorbed plates; assay type: cell-based
Protocol: (§1) (1) Using type 1 collagen (Iwaki Glass, type I-c), type 4 collagen (Iwaki Glass, type IV), fibronectin (human-origin, Iwaki Glass), vitronectin (human-origin, Iwaki Glass) and laminin (mouse […] sarcoma-origin, Iwaki Glass) as extracellular matrix proteins, experiments were performed to examine cell adhesion to a plastic plate on which those ectracellular matrix proteins had been adsorbed.
(§2) Each of the collagens was diluted with saline (adjusted to pH 3.0 with hydrochloric acid) to prepare a dilution at a concentration of 100 μg/ml for use in adsorption. The remaining three proteins were diluted with PBS of pH 7.4 to prepare dilutions at a concentration of 20 μg/ml for further use. […]
(§3) After the incubation for one hour according to the method described above, all the liquid present in each well was removed and the wells were washed three times with PBS to remove non-adherent cells. […] The concentration of methylene blue releasing from the cells was determined by a spectrophotometer on the basis of absorbance at 600 nm measured. In this measurement system, the number of cells adhering to the extracellular matrix proteins is proportional to the absorbance at 600 nm and therefore can be measured with precision.

human platelets [4] = test: protection of human platelet fraction during storage
Protocol: (§4) Immediately after the blood collection, the syringe was stirred gently to mix the blood with the sodium citrate solution. The mixed blood was centrifuged (1100 rpm, 250 g) at room temperature for 15 minutes and the rotation was stopped without applying the brake. Then, the supernatant was collected with a pipette to obtain a platelet fraction. The remaining blood was further centrifuged (3000 rpm, 1000 g). The supernatant was collected to obtain platelet-poor plasma and stored.
(§5) The platelet fraction was placed in a polypropylene test tube, which was capped with a membrane filter to ensure breathability. Then, the test tube was placed on a shaker and stored at room temperature while shaking through vibrational amplitude of 20 cm at a frequency of 2 Hz. All the operations were performed under aseptic conditions to prevent the proliferation of bacteria during the storage.
(§6) After the storage for a given period of time, an aliquot of the platelet fraction was sampled and the number of platelets was measured. Prostaglandin E1 (Sigma Co.) was added to give a final concentration of 20 μg/ml and centrifuged at 750 g for 10 minutes. The supernatant was removed and the remainder was washed twice with HEPES-Tyrode's buffer containing prostaglandin E1 to remove the protected peptide. Finally, the platelets were suspended in preliminarily stored platelet-poor plasma. After the incubation for a given period of time, the aggregation ability of the platelets was determined by the method described above.

B16F10 melanoma cells = test: adhesion of B16F10 melanoma cells to extracellular matrix protein adsorbed plates; assay type: cell-based
Protocol: as §1, §2, §3

human platelets [5] = system: human platelets
Protocol: as §4, §5, §6

[6] = during the continuous injection of the drug
[7] = type 1 collagen, type 4 collagen, fibronectin, vitronectin

Molecule: GRGDSP
aggregation of platelets activated by ADP (platelet aggregation [1]): completely inhibited

Molecule: N=C(N)NCCC[C@H](NC(=O)[C@H](CO)NC(=O)c1cc(=O)[nH]c(=O)[nH]1)C(=O)NCC(=O)N[C@@H](CC(=O)O)C(=O)N[C@@H](Cc1c[nH]c2ccccc12)C(=O)O [Example 9, Orotyl--Ser--Arg--Gly--Asp--Trp--OH] (X1-SRGDW-OH)
increase in the perfusion pressure ([2]; 10 mg/dog continuously injected over 1 hour): the increase rate of the perfusion pressure was evidently slow
increase in the perfusion pressure ([2]; 30 mg/dog continuously injected over 1 hour, during the injection): little or no increase in the perfusion pressure
blood coagulation ability during the continuous injection [2, 6]: approximately 0%
whole blood coagulation time [2, 6]: significantly prolonged
platelet aggregation time course with changed collagen concentration or ADP as inducer (platelet aggregation [3]): the same results were obtained
platelet aggregation 5 minutes after the injection (platelet aggregation [3]; collagen 10 μg/ml as inducer): completely inhibited
time to complete recovery of platelet aggregation activity to the level before the injection (platelet aggregation [3]; collagen 10 μg/ml as inducer): 45 to 60 min
effect on cell adhesion to laminin (Hela cells; laminin): scarcely any effect
cell adhesion to the other extracellular matrix proteins (Hela cells; [7]): inhibited depending on the concentration
aggregation activity of platelets remaining (human platelets [4]; 400 μM, after the 72 hour storage): 60-70%
decrease in the number of platelets (human platelets [4]; 400 μM, storage period of 72 hours): little decrease in the number of platelets
decrease in the aggregation activity of platelets during storage (human platelets [4]; dependent on peptide concentration, control decreased to 25% in 72 hours): the decrease in the aggregation activity was significantly inhibited
decrease in the number of platelets during storage compared to the control group (human platelets [4]; room temperature, shaking, dependent on peptide concentration): significant inhibitory effect on the decrease in the number of platelets
effect on cell adhesion to laminin (B16F10 melanoma cells; laminin): scarcely any effect
cell adhesion to the other extracellular matrix proteins (B16F10 melanoma cells; [7]): inhibited depending on the concentration

stability when added to a platelet fraction (human platelets [5]): broken down in several hours
Molecule: NC(N)=NCCC[C@H](N)C(=O)NCC(=O)N[C@@H](CC(=O)O)C(=O)N[C@@H](CO)C(=O)O [Comparative Example 1, Arg--Gly--Asp--Ser--OH]
